Patent US8933122B2, “Use of cationic surfactants as sporicidal agents” (Laboratorios Miret, S.A., priority 2008, dated 2015)

Tested on: endospores from Clostridium sporogenes ATCC 7955
Test: Sporicidal activity, quantitative suspension test EN 13704:2002 (Example 5)
Format: cell-based
Conditions: 60 minutes contact, 20° C.; for Test of LAE sporicidal activity (Na), surviving spores count: water as interfering substance, N 1.3 × 10^6 cfu/mL
Description: The determination of the sporicidal activity of LAE has been carried out according to the European standard EN 13704:2002 Chemical disinfectant—Quantitative suspension test for the evaluation of sporicidal activity of chemical disinfectants used in food, industrial, domestic and institutional areas—Test method and requirements”.
A test suspension containing endospores from Clostridium sporogenes ATCC 7955 was prepared from a culture grown on a nutrient agar, to which additional sporulation enhancement ingredients were added. Plates were harvested with sterile water and endospores were purified by repeated centrifugations and resuspensions in water.
Neutralizer. The neutralizer mixture consisted of 30 g/L polysorbate 80 in water. The solution was intended to neutralize any chemicals so that these would not affect subsequent growth of the bacteria.
The sporicidal activity of a given product is defined by its capacity to reduce at least by 10^3 the amount of Clostridium sporogenes bacterial spores in suspension, in the conditions established in the method.
The product was in contact with a suspension of bacterial spores during an established period of time of 60 minutes. An interfering substance can be added to the suspension, in this case water. Next, the effect of the product is neutralized by adding a neutralizer previously chosen, preceding to the surviving spores count.
• 1. Spore suspension obtained from a spored-form culture of Clostridium sporogenes. • 2. Count of the spore suspension of Clostridium sporogenes. • 3. The possible toxic effect of the neutralizer on the spores in the absence of the product is valued. • 4. […] Results: Results are expressed as the reduction of viability of the spore suspension in regards to: […]
Sporicidal activity is calculated following the criteria of the Standard EN 13704: 2002 R=N×0.1/Na N is cfu/mL of the spore suspension. […] The calculated reduction (R) of a solution of: • 13 μg/mL of LAE is R<10^3 cfu/mL • 26 μg/mL of LAE is R<10^3 cfu/mL • 51 μg/mL of LAE is R>10^3 cfu/mL • 64 μg/mL of LAE is R>10^3 cfu/mL

## CCCCCCCCCCCC(=O)N[C@@H](CCCN=C(N)N)C(=O)OCC.Cl [LAE, ethyl ester of the lauramide of the arginine monohydrochloride]
EN 13704:2002
  concentration displaying sporicidal activity (reduction equal or above 10^3): ≥ 51 μg/mL
LAE 13 μg/mL
  Test of LAE sporicidal activity (Na), surviving spores count: 3.3 × 10^3 cfu/mL
LAE 26 μg/mL
  Test of LAE sporicidal activity (Na), surviving spores count: 2.3 × 10^3 cfu/mL
